# Test results published in the supplement of paper PMC9763283.
# How the values were obtained:
# Assay in all cases: area under growth-rate inhibition curve (AUC GRI) (dimensionless (GR-based AUC)); higher = less growth inhibition
# Settings in all cases: exposure time: 72 h; concentrations: 0.1, 1, 10 uM
# [1] = system: BT474-LTR
# Summary of the method: (§1)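 The area under the growth-rate inhibition curve was measured in six breast cancer cell line models, covering triple-negative lines and HER2+ lines, both parental and resistant to a two-drug combination. Cells were exposed to compound at 0.1, 1 or 10 µM for 72 h, fixed in 4% paraformaldehyde, and nuclei were stained with Hoechst 33342 or DAPI for imaging and counting. Day 0 plates, untreated Day 3 plates and DMSO controls served to correct growth across 2 biological replicates.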
# [2] = system: BT474-P
# Summary of the method: as §1
# [3] = system: MDA-MB-231
# Summary of the method: as §1
# [4] = system: MDA-MB-468
# Summary of the method: as §1
# [5] = system: SKBR3-LTR
# Summary of the method: as §1
# [6] = system: SKBR3-P
# Summary of the method: as §1
Structure (SMILES),area under growth-rate inhibition curve [1],area under growth-rate inhibition curve [2],area under growth-rate inhibition curve [3],area under growth-rate inhibition curve [4],area under growth-rate inhibition curve [5],area under growth-rate inhibition curve [6]
CCOC(=O)c1cncn1C(C)c1ccccc1 (centres undefined) [Etomidate],1.09,1.08,1.05,1.03,1.07,0.999
C#C[C@]1(O)CC[C@H]2[C@@H]3CCC4=CC(=O)CC[C@@H]4[C@H]3C(=C)C[C@@]21CC [Etonogestrel],0.993,0.958,0.976,1.03,1.05,1
CC1=C(C(=O)OC2CCCCC2)C(c2ccc([N+](=O)[O-])cc2)C2=C(CC(C)(C)CC2=O)N1 (centres undefined) [FLI-06],1.01,0.895,0.878,0.915,0.928,0.915
NC(N)=Nc1nc(CSCCC(N)=NS(N)(=O)=O)cs1 [Famotidine],1.09,1.02,1.02,1.05,1.08,1.03
NC(=O)OCC(COC(N)=O)c1ccccc1 [Felbamate],1.02,1.01,1.04,1.03,1.05,1.03
CC(C)C(=O)Oc1ccc(CO)cc1[C@H](CCN(C(C)C)C(C)C)c1ccccc1.O=C(O)/C=C/C(=O)O [Fesoterodine Fumarate],1,0.994,1.01,1.01,0.961,0.973
CC(C)(C(=O)O)c1ccc(C(O)CCCN2CCC(C(O)(c3ccccc3)c3ccccc3)CC2)cc1.[Cl-].[H+] (centres undefined) [Fexofenadine HCl],1.01,1.03,1,1.03,1.01,1.03
CCCCCCCCc1ccc(CCC(N)(CO)CO)cc1.Cl [Fingolimod (FTY720) HCl],0.96,0.836,0.829,0.864,0.814,0.901
CCOC(=O)c1ncn2c1CN(C)C(=O)c1cc(F)ccc1-2 [Flumazenil],1.06,1.03,1.01,1.02,1.03,0.989
CNCCC(Oc1ccc(C(F)(F)F)cc1)c1ccccc1.[Cl-].[H+] (centres undefined) [Fluoxetine HCl],1.03,1.02,1,1.03,1,1.02
C[C@]12CCC(=O)C=C1CC[C@H]1[C@@H]3CC[C@@](C)(O)[C@@]3(C)C[C@H](O)[C@@]12F [Fluoxymesterone],0.955,0.937,0.995,1.04,1.03,1.01
OCCN1CCN(CCCN2c3ccccc3Sc3ccc(C(F)(F)F)cc32)CC1.[Cl-].[Cl-].[H+].[H+] [Fluphenazine (dihydrochloride)],1.06,0.966,0.991,0.953,1.05,0.975
Cl.Cl.OCCN1CCN(CCCN2c3ccccc3Sc3ccc(C(F)(F)F)cc32)CC1 [Fluphenazine dihydrochloride?],1.02,1.01,1.03,1.03,1.05,1.02
CCC(=O)O[C@@]1(C(=O)SCF)[C@H](C)CC2C3CC(F)C4=CC(=O)C=C[C@]4(C)[C@]3(F)C(O)C[C@@]21C (some centres undefined) [Fluticasone propionate],1.04,0.985,0.973,1.04,1.05,0.915
COCCCC/C(=N\OCCN)c1ccc(C(F)(F)F)cc1.O=C(O)/C=C\C(=O)O [Fluvoxamine maleate],1.1,1.04,1.01,1.03,1.05,1.02
COc1ccc(C[C@H](C)NC[C@@H](O)c2ccc(O)c(NC=O)c2)cc1.COc1ccc(C[C@H](C)NC[C@@H](O)c2ccc(O)c(NC=O)c2)cc1.O=C(O)/C=C/C(=O)O [Formoterol Hemifumarate],1.05,1.01,0.93,1.01,1.09,1.03
C=C[C@@]1(C)CC(=O)[C@]2(O)[C@@]3(C)[C@@H](O)CCC(C)(C)[C@@H]3[C@H](O)[C@H](OC(C)=O)[C@@]2(C)O1 [Forskolin],1.02,0.984,0.924,1.01,1.04,1.03
CCC(=O)O[C@@H](OP(=O)(CCCCc1ccccc1)CC(=O)N1C[C@H](C2CCCCC2)C[C@H]1C(=O)[O-])C(C)C.[Na+] (some centres undefined) [Fosinopril Sodium],1.13,1.06,1.03,1.02,1.04,1.01
C[C@]12CC[C@@H]3c4ccc(O)cc4C[C@@H](CCCCCCCCCS(=O)CCCC(F)(F)C(F)(F)F)[C@H]3[C@@H]1CC[C@@H]2O (some centres undefined) [Fulvestrant],0.986,0.778,1.02,0.96,1.01,0.952
NCC1(CC(=O)O)CCCCC1 [Gabapentin],1.04,1,1.04,1.04,1.08,1.03
CC[N+](CC)(CC)CCOc1cccc(OCC[N+](CC)(CC)CC)c1OCC[N+](CC)(CC)CC.[I-].[I-].[I-] [Gallamine Triethiodide],1.08,1.02,1.03,1.01,1.03,1
C#C[C@]1(O)C=C[C@H]2[C@@H]3CCC4=CC(=O)CC[C@@H]4[C@H]3CC[C@@]21CC [Gestodene],1.04,0.981,1.03,1.03,1.12,1.01
NCC(=O)O [Glycine],1.05,1.03,1.04,1.03,1.06,1.03
N=C(N)N/N=C/c1c(Cl)cccc1Cl [Guanabenz Acetate],1.1,1.03,1.03,1,1.08,1.01
